# Experiment: Electronic cigarette aerosol exposure experiment on mice: plasma concentrations
# Conditions: 9 mice; inhalation of aerosol from one electronic cigarette, 4 seconds per puff, one puff every 20 sec, 10 puffs per episode, one episode every 30 min, 4 episodes in 2 hours
smiles,measurement,value
CN1CCCC1c1cccnc1 (stereo not shown) [nicotine],Mouse plasma nicotine concentration (mean±SD),35.3 ± 20.0 ng/mL

# From patent US11000065B2, “Aerosol generation and exposure system” (CHARLES R. DREW UNIVERSITY OF MEDICINE AND SCIENCE, priority 2016, dated 2021)
